We go through 39 compounds from US7109370B2, “Substituted phenylketoenols” (Bayer Aktiengesellschaft, priority 1997, dated 2006).

Common to all, as to format: in vivo
For data set [1], the system named is greenhouse red spider mite Tetranychus urticae. In words: Tetranychus test (OP-resistant/dip treatment). The conditions noted are these: after 14 days, infested bean plants dipped. Here is the method: Tetranychus Test (OP-Resistant/Dip Treatment)
(§1) To produce a suitable preparation of active compound, 1 part by weight of active compound is mixed with the stated amount of solvent and the stated amount of emulsifier, and the concentrate is diluted with water to the desired concentration.
Bean plants (Phaseolus vulgaris) which are heavily infested by all stages of the greenhouse red spider mite Tetranychus urticae are dipped into a preparation of active compound of the desired concentration.
After the desired period of time, the kill in % is determined. 100% means that all spider mites have been killed; 0% means that none of the spider mites have been killed.

The test system of data set [2] is larvae of the mustard beetle (Phaedon cochleariae). In words: Phaedon larvae test (dipped cabbage leaves). The note with it: active compound concentration 0.1%, after 7 days. Here is the method:
Phaedon Larvae Test [table] To produce a suitable preparation of active compound, 1 part by weight of active compound is mixed with the stated amount of solvent and the stated amount of emulsifier, and the concentrate is diluted with water to the desired concentration. Cabbage leaves (Brassica oleracea) are treated by being dipped into the preparation of active compound of the desired concentration and are populated with larvae of the mustard beetle (Phaedon cochleariae) while the leaves are still moist.

For data set [3], the system named is green rice leaf hoppers (Nephotettix cincticeps). In words: Nephotettix test (dipped rice seedlings). The note with it: active compound concentration 0.1%, after 6 days. The method, then:
as §1
Rice seedlings (Oryzae sativa) are treated by being dipped into the preparation of active compound of the desired concentration and are populated with green rice leaf hoppers (Nephotettix cincticeps) while the seedlings are still moist.
After the desired period of time, the kill in % is determined. 100% means that all leaf hoppers have been killed; […] means that none of the leaf hoppers have been killed.

Data set [4] concerns peach aphids (Myzus persicae). Description: Myzus test (dipped cabbage leaves). The note with it: active compound concentration 0.1%; after 6 days; infested cabbage leaves dipped. Here is the method: as §1
Cabbage leaves (Brassica oleracea) which are heavily infested by peach aphids (Myzus persicae) are treated by being dipped into the preparation of active compound of the desired concentration.
After the desired period of time, the kill in % is determined. 100% means that all aphids have been killed; 0% means that none of the aphids have been killed.

For a further data set, the system named is Myzus persicae. In words: Critical concentration test/root-systemic action, Myzus persicae. The note with it: 20 ppm active compound in soil; peppers; populated after 7 days, evaluated after a further 6 days. The method, then:
Critical Concentration Test/Root-systemic Action
as §1
The preparation of active compound is intimately mixed with soil. The concentration of the active compound in the preparation is of practically no importance here, only the amount by weight of active compound per unit volume of soil, which is given in ppm (=mg/l), being decisive. The treated soil is transferred into pots and these are planted with peppers at the cotyledon stage. The active compound can in this way be taken up from the soil by the roots of the plants and be transported into the leaves.
(§2) After a further 6 days, evaluation is carried out by counting or estimating the dead animals. The root-systemic action of the active compound is deduced from the mortality figures. It is 100% if all the test animals have been killed and 0% if just as many test insects are still alive as in the case of the untreated control.

For data set [5], the system named is caterpillars of the owlet moth (Spodoptera frugiperda). In words: Spodoptera frugiperda test (dipped cabbage leaves). The conditions noted are these: active compound concentration 0.1%, after 7 days. The method, then:
Spodoptera frugiperda Test
as §1
Cabbage leaves (Brassica oleracea) are treated by being dipped into the preparation of active compound of the desired concentration and are populated with caterpillars of the owlet moth (Spodoptera frugiperda) while the leaves are still moist.
After the desired period of time, the kill in % is determined. 100% means that all caterpillars have been killed; 0% means that none of the caterpillars have been killed.

Another data set concerns Aphis fabae. Description: Critical concentration test/root-systemic action, Aphis fabae. The note with it: soil, read-out: root-systemic effect (mortality). Here is the method:
Critical Concentration Test/Root-Systemic Action
as §1
The preparation of active compound is intimately mixed with soil. The concentration of the active compound in the preparation is of practically no importance here, only the amount by weight of active compound per unit volume of soil, which is given in ppm (=mg/l), being decisive. The treated soil is transferred into pots and these are planted with pregerminated broad beans. The active compound can in this way be taken up from the soil by the roots of the plants and be transported into the leaves.
as §2

Setting [6] is: active compound concentration 0.1%.
The mark [7] stands for this setting: active compound concentration 0.02%.

In the case of `Cc1ccc(C2=C(O)C3(CCOC(C)C3)NC2=O)c(C)c1` (single isomer, unassigned) [I-a-4], the “effect (kill in %)” value in data set [1] (setting [6]) is 100%. Turning to `Cc1ccc(C2=C(O)C3(CCOC(C)C3)NC2=O)c(Cl)c1` (single isomer, unassigned) [I-a-7], the “effect (kill in %)” value in data set [1] (setting [6]) is reported as 100%. Further, the kill in % in data set [2] and in data set [3] was 100% throughout. In data set [2], `Cc1cc(Cl)cc(Cl)c1C1=C(O)C2(CCOC(C)C2)NC1=O` (single isomer, unassigned) [I-a-8] came in with a kill in % of 100%. In the case of `Cc1cc(Cl)c(C2=C(O)C3(CCOC(C)C3)NC2=O)c(Cl)c1` (single isomer, unassigned) [I-a-9], the “effect (kill in %)” value in data set [1] (setting [6]) was found to be 100%. Besides, the kill in % in data set [4] is given as 100%. As for `Cc1cc(C)c(C2=C(O)C3(CCOC(C)C3)NC2=O)c(C)c1C` (single isomer, unassigned) [I-a-10], in data set [4], the kill in % is 100%. On the same count and under the same terms, to `Cc1cc(C#N)cc(C)c1C1=C(O)C2(CCOC(C)C2)NC1=O` (single isomer, unassigned) [I-a-12] belongs 100%. In data set [4], `CC1CC2(CCO1)NC(=O)C(c1ccc(Br)cc1Cl)=C2O` (single isomer, unassigned) [I-a-15] returned a kill in % of 100%. For the compound `Cc1cc(Cl)cc(C)c1C1=C(O)C2(CCOC(C)C2)NC1=O` (single isomer, unassigned) [I-a-16], the kill in % in data set [4] was determined as 100%. For the same compound, the “root-systemic effect (mortality)” value in the data set on Myzus persicae is on record as 100%. For `Cc1cc(Br)cc(C)c1C1=C(O)C2(CCOC(C)C2)NC1=O` (single isomer, unassigned) [I-a-18], in data set [4], the kill in % was 100%. `Cc1cc(Cl)cc(Br)c1C1=C(O)C2(CCOC(C)C2)NC1=O` (single isomer, unassigned) [I-a-19]: in data set [4], the kill in % was 100%.

Turning to `Cc1ccc(C)c(C2=C(O)C3(CCOC(C)C3)NC2=O)c1` (single isomer, unassigned) [I-a-20], the kill in % in data set [5] and in data set [4] was 100% throughout.

The compound `CCc1cc(Br)c(C2=C(O)C3(CCOC(C)C3)NC2=O)c(Br)c1` (single isomer, unassigned) [I-a-21] displayed a kill in % in data set [4] of 100%. For the compound `CCc1ccc(C2=C(O)C3(CCOC(C)C3)NC2=O)c(Cl)c1` (single isomer, unassigned) [I-a-22], in data set [3], the kill in % was determined as 100%. In the case of `CC(=O)OC1=C(c2c(C)cc(C)cc2C)C(=O)NC12CCOC(C)C2` (single isomer, unassigned) [I-b-2], the “effect (kill in %)” value in data set [1] (setting [6]) is recorded as 100%. Further, the kill in % in data set [3] stood at 100%. In the case of `Cc1cc(C)c(C2=C(OC(=O)C(C)C)C3(CCOC(C)C3)NC2=O)c(C)c1` (single isomer, unassigned) [I-b-3], in data set [1] (setting [6]), the “effect (kill in %)” value is listed as 100%.

As to `Cc1ccc(C2=C(OC(=O)C(C)C)C3(CCOC(C)C3)NC2=O)c(C)c1` (single isomer, unassigned) [I-b-4], in data set [1] (setting [6]), the “effect (kill in %)” value was determined as 100%. In addition, the kill in % in data set [2] and in data set [3] was 100% each time. In data set [3], `CC(=O)OC1=C(c2c(C)cc(C)cc2C)C(=O)NC12CCOC(C)C2` (single isomer, unassigned) [I-b-5] returned a kill in % of 100%. `CC(=O)OC1=C(c2ccc(C)cc2C)C(=O)NC12CCOC(C)C2` (single isomer, unassigned) [I-b-6] registered a kill in % in data set [3] of 100%. Consider `Cc1ccc(C2=C(OC(=O)C(C)C)C3(CCOC(C)C3)NC2=O)c(C)c1` (single isomer, unassigned) [I-b-7], for which, in data set [1] (setting [6]), the “effect (kill in %)” value stood at 100%. Moreover, in data set [3], the kill in % is listed as 100%.

For `Cc1ccc(C2=C(OC(=O)C(C)C)C3(CCOC(C)C3)NC2=O)c(Cl)c1` (single isomer, unassigned) [I-b-8], in data set [1] (setting [6]), the “effect (kill in %)” value is listed as 100%. Also, the kill in % in data set [2] and in data set [3] was 100% each time.

Regarding `Cc1cc(C)c(C2=C(OC(=O)C(C)C)C3(CCOC(C)C3)NC2=O)c(C)c1C` (single isomer, unassigned) [I-b-11], the kill in % in data set [3] is recorded as 100%.

With `CC1CC2(CCO1)NC(=O)C(c1ccc(Br)cc1Cl)=C2OC(=O)C(C)C` (single isomer, unassigned) [I-b-15], the “effect (kill in %)” value in data set [1] (setting [7]) is 100%. Take `CC1CC2(CCO1)NC(=O)C(c1ccc(Br)cc1Cl)=C2OC(=O)CC(C)(C)C` (single isomer, unassigned) [I-b-16]: the “effect (kill in %)” value in data set [1] (setting [7]) is given as 100%. For `Cc1cc(Cl)ccc1C1=C(OC(=O)C(C)C)C2(CCOC(C)C2)NC1=O` (single isomer, unassigned) [I-b-17], the “effect (kill in %)” value in data set [1] (setting [7]) came to 100%. Moreover, the kill in % in data set [4] and in data set [3] was 100% throughout. Consider `CCc1ccc(C2=C(OC(=O)C(C)C)C3(CCOC(C)C3)NC2=O)c(Cl)c1` (single isomer, unassigned) [I-b-22], for which the “effect (kill in %)” value in data set [1] (setting [7]) came to 100%. The kill in % in data set [2] and in data set [3] was 100% throughout.

On to `CCc1ccc(C2=C(OC(=O)c3cccs3)C3(CCOC(C)C3)NC2=O)c(Cl)c1` (single isomer, unassigned) [I-b-23], for which the kill in % in data set [2] and in data set [3] was 100% each time. `Cc1cc(C)c(C2=C(O)C3(CCOC(C)C3)NC2=O)c(C)c1` (centres unmarked) [I-a-1]: the mortality at 20 ppm in the data set with Aphis fabae came out at 100%. For the compound `Cc1cc(C)c(C2=C(OC(=O)C(C)C)C3(CCOC(C)C3)NC2=O)c(C)c1` (centres unmarked) [I-b-1], the mortality at 20 ppm in the data set on Aphis fabae turned out to be 100%. For the same compound, in data set [3], the kill in % stood at 100%. For the compound `Cc1cc(Cl)cc(C)c1C1=C(OC(=O)C(C)C)C2(CCOC(C)C2)NC1=O` (centres unmarked) [I-b-25], the “root-systemic effect (mortality)” value with Myzus persicae is 100%.

For the compound `CCOC(=O)OC1=C(c2c(C)cc(C)cc2C)C(=O)NC12CCOC(C)C2` (centres unmarked) [I-c-1], the “effect (kill in %)” value in data set [1] (setting [6]) turned out to be 100%. For the same compound, the mortality at 20 ppm with Aphis fabae was determined as 100%. Besides, the kill in % in data set [3] was 100%. In the case of `CCOC(=O)OC1=C(c2ccc(C)cc2C)C(=O)NC12CCOC(C)C2` (centres unmarked) [I-c-3], the kill in % in data set [5], in data set [2] and in data set [3] was 100% in each case. Besides, the “effect (kill in %)” value in data set [1] (setting [6]) is 100%.

`CCOC(=O)OC1=C(c2ccc(C)cc2C)C(=O)NC12CCOC(C)C2` (centres unmarked) [I-c-4]: the “effect (kill in %)” value in data set [1] (setting [6]) is reported as 100%. Moreover, in data set [3], the kill in % is 100%. Turning to `CCOC(=O)OC1=C(c2c(C)cc(C)c(C)c2C)C(=O)NC12CCOC(C)C2` (centres unmarked) [I-c-5], the kill in % in data set [3] is 100%. For `CCOC(=O)OC1=C(c2cc(C)c(C)cc2C)C(=O)NC12CCOC(C)C2` (centres unmarked) [I-c-7], in data set [3], the kill in % turned out to be 100%.

As for `CCOC(=O)OC1=C(c2ccc(Br)cc2Cl)C(=O)NC12CCOC(C)C2` (centres unmarked) [I-c-8], in data set [4], the kill in % is on record as 100%. For the compound `CCOC(=O)OC1=C(c2c(C)cc(Br)cc2C)C(=O)NC12CCOC(C)C2` (centres unmarked) [I-c-11], the kill in % in data set [4] and in data set [3] was 100% each time. For `CCOC(=O)OC1=C(c2ccc(Cl)cc2Cl)C(=O)NC12CCOC(C)C2` (centres unmarked) [I-c-12], the kill in % in data set [4] stood at 100%. For `CCOC(=O)OC1=C(c2ccc(CC)cc2Cl)C(=O)NC12CCOC(C)C2` (centres unmarked) [I-c-13], the kill in % in data set [5] and in data set [2] was 100% each time. Further, the “effect (kill in %)” value in data set [1] (setting [7]) is 100%. For the compound `CCOC(=O)OC1=C(c2cc(C)ccc2C)C(=O)NC12CCOC(C)C2` (centres unmarked) [I-c-15], in data set [5], the kill in % was 100%.

The term mortality denotes the share of the test organisms that died.
